Results on nine compounds are retold here after PMC12315900, “A twist in the tale: shifting from covalent targeting of a tyrosine in JAK3 to a lysine in MK2” (RSC Medicinal Chemistry, 2025).

pIC50: −log10 of the molar value. A value given as a limit tells only on which side of the number the result lay.

Data set [1] can be described thus: buffer stability at pH 7.4 (HPLC). The class given is physicochemical. The conditions noted are these: pH 7.4, over the incubation time.
Data set [2] has as its target T1, MK2 (Homo sapiens, UniProt P49137, DEL216-236/P237G). As to the kind of experiment: intact protein MS with MK2 (covalent modification). The conditions noted are these: for covalent modification of MK2 (covalent binding): 5-fold excess compound over MK2, rt, 3 h; for Ratio [%] (AUC[mod]/(AUC[unmod]+AUC[mod])): 50 µM protein, 250 µM compound, room temperature, 3 hours, relative quantification from deconvoluted spectra.
Method: using a NanoDrop 2000 spectrophotometer (Thermo Scientific), with molar extinction coefficient
and molecular weight specified using the "other protein (E & MW)" setting.
at 4 °C for 24 hours. For the negative control, an equivalent volume of DMSO was added to the
protein solution. To quench the reaction, 0.1% formic acid in the double-distilled water (ddH₂O)
was added in a 1:10 ratio (v/v), followed by desalting of the samples using C8 stage tips with the
MS data acquisition was carried out on a Time-of-Flight (TOF)
LC/MS system (Agilent 6200 series) equipped with a positive electrospray ionization (ESI) source.
A volume of 5 µL of the desalted sample was injected for mass spectrometry (MS) analysis. To
prevent cross-sample contamination, blank injections were run between each sample. Data were
deconvoluted and analyzed using Agilent’s MassHunter Bioconfirm software, applying a scan
range of 600–2000 m/z, a mass range of 10–100 kDa, a mass step of 1 Da, and a baseline
at room temperature for 3 hours. For the negative control, an equivalent volume of DMSO was
added to the protein solution. To quench the reaction, 0.1% formic acid in the double -distilled
water (ddH₂O) was added in a 1:10 ratio (v/v), followed by desalting of the samples using C8 stage
The UHPLC-system consisted of an Agilent
(G1316C) and a valve drive (G1170A) equipped with a 2-pos 6-port valve for online desalting of the
samples. Mobile phase A (water + 0.1 % (v/v) formic acid) and mobile phase B (acetonitrile + 0.1
% (v/v) formic acid) were used for gradient elution on a BIOshell Protein C4 HPLC column (5 cm x
2.1 mm, 3.4 μm, 400 Å; Merck, Darmstadt, Germany). The flow rate was set to 1.0 mL/min with
the following gradient settings: 0−0.2 min: 10 % B, 0.2−2.2 min: 10−80 % B, 2.2−3 min: 80 % B,
whole analysis. The UHPLC-system was coupled to a TripleTOF 5600+ mass spectrometer from
Sciex (Darmstadt, Germany) using a Duospray ion source in positiveionization mode and the
following source and MS parameters: curtain gas (CUR): 30 psi, nebulizing gas (GS1): 50 psi,
heater gas (GS2): 40 psi, ion spray floating voltage (ISVF): 5500 V, source temperature (TEM): 450
°C, collision energy (CE): 30 V, declustering potential (DP): 230 V. The acquisition was performed
in the TOF mode of the mass spectrometer using a mass range from 100 to 5000 m/z with an
accumulation time of 100 ms. Moreover, the IntactProteinMode -script from Sciex was used to
optimize MS settings for protein analysis. The Analyst TF 1.8.1 software and the PeakView
software 2.2.0 (both Sciex) were used for data acquisition and data analysis, respectively. Mass
spectra were deconvoluted using the BioToolKit 2.2.0 software package.
Relative quantification was performed with the area under curve (AUC) of each protein species in
the deconvoluted mass spectra with the PeakView software’s integration tool.
𝑅𝑎𝑡𝑖𝑜 [%] = 𝐴𝑈𝐶[𝑚𝑜𝑑] × 100

Data set [3] concerns the target T2, JAK3 (Homo sapiens, UniProt P52333).
T2 sequence (P52333 1-1124): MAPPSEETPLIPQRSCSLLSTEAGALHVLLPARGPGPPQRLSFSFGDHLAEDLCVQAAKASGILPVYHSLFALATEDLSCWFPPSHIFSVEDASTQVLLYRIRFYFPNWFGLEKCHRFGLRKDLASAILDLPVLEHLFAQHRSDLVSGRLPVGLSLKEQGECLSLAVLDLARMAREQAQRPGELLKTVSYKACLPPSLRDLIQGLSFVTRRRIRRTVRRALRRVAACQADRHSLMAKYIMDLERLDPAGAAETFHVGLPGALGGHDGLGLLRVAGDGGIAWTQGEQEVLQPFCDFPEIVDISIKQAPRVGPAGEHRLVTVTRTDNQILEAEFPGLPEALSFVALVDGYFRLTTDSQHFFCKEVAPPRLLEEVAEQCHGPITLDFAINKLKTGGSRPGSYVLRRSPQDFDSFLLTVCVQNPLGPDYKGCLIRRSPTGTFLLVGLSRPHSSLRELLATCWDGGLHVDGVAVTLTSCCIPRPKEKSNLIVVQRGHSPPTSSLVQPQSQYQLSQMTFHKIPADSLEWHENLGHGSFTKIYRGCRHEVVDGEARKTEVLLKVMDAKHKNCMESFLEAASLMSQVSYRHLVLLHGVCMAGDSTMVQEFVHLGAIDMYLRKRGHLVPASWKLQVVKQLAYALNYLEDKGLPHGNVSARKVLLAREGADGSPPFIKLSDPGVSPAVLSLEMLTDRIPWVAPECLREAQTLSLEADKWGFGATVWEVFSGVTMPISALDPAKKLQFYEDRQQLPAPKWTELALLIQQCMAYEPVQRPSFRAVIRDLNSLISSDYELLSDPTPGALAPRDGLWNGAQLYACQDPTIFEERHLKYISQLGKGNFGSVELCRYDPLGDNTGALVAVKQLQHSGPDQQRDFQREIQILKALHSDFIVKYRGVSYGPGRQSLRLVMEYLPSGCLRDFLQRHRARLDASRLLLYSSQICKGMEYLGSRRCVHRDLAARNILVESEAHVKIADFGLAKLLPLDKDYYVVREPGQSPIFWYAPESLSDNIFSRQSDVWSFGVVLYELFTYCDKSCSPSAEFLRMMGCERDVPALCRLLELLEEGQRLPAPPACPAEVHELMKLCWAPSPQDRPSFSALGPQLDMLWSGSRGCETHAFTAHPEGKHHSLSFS
As to the kind of experiment: biochemical.

Data set [4] deals with T1, MK2. As to the kind of experiment: kinact/KI from time- and concentration-dependent intact protein MS.
Method: Determination of Kinetic Parameters
kinact/KI was measured based on time- and concentration-dependent analysis of intact protein
mass spectra using the bimolecular model described by the equations seen below, as reported
[PI]: concentration of the protein-compound complex, [PI*]: concentration
of the covalent protein-compound complex, [PI*] ≈ [PI] if kinact is relatively high. [P]0, [I]0:
concentration of initial protein and compound. t: incubation time(s).
When reaching each time point of incubation
(15 min, 30 min, 60 min, 120 min, 180 min), an aliquot of the reaction mixture was transferred into
1 % formic acid in ddH2O using a multichannel pipette (10 µL of sample added to 90 µL
ddH2O/1% formic acid), to stop the reaction at the exact time point. MS was performed and %
occupancy was calculated in the same way (see equations below).
time- and concentration -dependent % occupancy: import data as XY table. A nonlinear
regression fit was chosen to fit the curves, kinact/KI was set up as the constraint type of “Shared
value for all datasets”, initial value as 0, the rest settings are as default.
𝑂𝑐𝑐𝑢𝑝𝑎𝑛𝑐𝑦 [%] = 𝐼𝑚𝑜𝑑 × 100
[𝑃𝐼 ] = [𝑃]0[𝐼]0 ([𝑃] −[𝐼] )×𝑘 /𝐾 ×𝑡
𝑂𝑐𝑐𝑢𝑝𝑎𝑛𝑐𝑦 [%] = [𝑃𝐼] × 100
For data set [5], the system named is MK2. On the set-up: method as in PMID 24900358. The conditions noted are these: @100 μM ATP; cited from earlier work.
For data set [6], the target named is MK2 (Homo sapiens, UniProt P49137). Put plainly: biochemical.
The nature of a further data set: solubility observation. The class given is physicochemical. From the text: While the warhead now cannot rotate away anymore, it also is very limited in the trajectory it can assume prior to/during the bond-forming event. On the other hand, the tyrosine side chain is also a rather rigid structure (especially considering the degrees of freedom of cysteine or e.g. lysine in comparison) and if two very rigid structures are supposed to react with each other, a proper pre-orientation and a binding mode that enables a strain-free reaction trajectory play a much bigger role than for the reaction of two more flexible moieties like, for example, acrylamide and cysteine.

The target of data set [7] is T2, JAK3. The note with it: JAK3 ELISA, same assay conditions (starting at 10 μM). Background: An ELISA detects its analyte on a solid surface through an enzyme-linked reagent.

MK2 (Homo sapiens, UniProt P49137), sequence (P49137 whole entry): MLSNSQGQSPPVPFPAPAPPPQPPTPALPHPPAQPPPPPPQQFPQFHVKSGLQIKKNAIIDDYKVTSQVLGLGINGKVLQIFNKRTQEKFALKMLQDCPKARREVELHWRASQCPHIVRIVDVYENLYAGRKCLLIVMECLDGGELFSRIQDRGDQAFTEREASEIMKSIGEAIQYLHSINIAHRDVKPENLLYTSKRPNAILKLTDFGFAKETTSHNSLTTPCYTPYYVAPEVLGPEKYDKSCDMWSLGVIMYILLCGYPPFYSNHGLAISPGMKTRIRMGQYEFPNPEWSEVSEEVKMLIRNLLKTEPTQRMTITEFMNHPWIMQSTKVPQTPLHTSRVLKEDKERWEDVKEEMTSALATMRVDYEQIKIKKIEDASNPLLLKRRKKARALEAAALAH
T1 sequence (P49137 with tags, fused parts or gaps DEL216-236/P237G): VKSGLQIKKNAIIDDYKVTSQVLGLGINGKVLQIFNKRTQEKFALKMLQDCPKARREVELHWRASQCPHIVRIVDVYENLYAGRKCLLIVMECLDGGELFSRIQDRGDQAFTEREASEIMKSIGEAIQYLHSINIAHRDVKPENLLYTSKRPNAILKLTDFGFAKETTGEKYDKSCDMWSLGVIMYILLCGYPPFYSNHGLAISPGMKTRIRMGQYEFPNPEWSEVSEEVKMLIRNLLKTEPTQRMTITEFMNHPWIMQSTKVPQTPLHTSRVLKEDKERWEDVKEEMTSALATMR

In the case of `CC(C)(C)OC(=O)N1CCN(c2ccc(NC(=O)c3ccc(-c4ccc(Cl)cc4)o3)cc2S(=O)(=O)F)CC1` [compound 64], in data set [1], the buffer stability entry was “some degradation”. On MK2 [2], the “covalent modification of MK2 (covalent binding)” value (“covalent modification of MK2” below) came out at 15%.

As to `O=C(c1ccc(-c2ccc(Cl)cc2)o1)N(Cc1ccccn1)c1ccc(N2CCNCC2)c(S(=O)(=O)F)c1` [compound 65], on MK2 [2], the “Ratio [%] (AUC[mod]/(AUC[unmod]+AUC[mod]))” value is recorded as 14.51% and the “covalent modification of MK2” value is recorded as 15%.

With `N#Cc1cccc(-c2cn(C3CCCCC3)c3c2cnc2[nH]ccc23)c1` [compound 6], the pIC50 – broadly, the IC50 on a negative log10 scale, so that one unit is a factor of ten – against JAK3 [3] was 8.28.

Consider `O=C(c1ccc(-c2ccc(Cl)c(OS(=O)(=O)F)c2)o1)N(Cc1ccccn1)c1ccc(N2CCNCC2)cc1` [compound 42], for which, on MK2 [2], the “Ratio [%] (AUC[mod]/(AUC[unmod]+AUC[mod]))” value came to 94.28% and the “covalent modification of MK2” value was 95%. The kinact/KI – broadly, the maximal inactivation rate divided by the concentration that gives half of it – at MK2 [4] was determined as 1.12 M⁻¹ s⁻¹.

As for `O=C(c1ccc(-c2ccc(Cl)cc2)o1)N(Cc1ccccn1)c1ccc(N2CCNCC2)cc1` [compound 41, reference compound], the values for the pIC50 with MK2 [5] and against MK2 [6] were 6.96 and < 5.30, respectively.

As to `O=C(c1ccc(-c2ccc(Cl)c(O)c2)o1)N(Cc1ccccn1)c1ccc(N2CCNCC2)cc1` [compound 66], the pIC50 against MK2 [6] was < 5.30.

With `O=C(c1ccc(-c2ccc(Cl)cc2)o1)N(Cc1ccccn1)c1ccc(N2CCNCC2)c(OS(=O)(=O)F)c1` [compound 43], the “covalent modification of MK2” value at MK2 [2] is listed as “no binding at all”.

Take `O=C(c1ccc(-c2ccc(Cl)cc2)o1)N(Cc1ccccn1)c1ccc(N2CCNCC2)c(O)c1` [compound 67]: on MK2 [6], the pIC50 was < 5.30.

For the compound `O=c1c2cc(OS(=O)(=O)F)ccc2c2cnc3[nH]ccc3c2n1C1CCCCC1` [compound 35], the solubility result in the data set “solubility observation” is reported as “low solubility”. In addition, the inhibitory activity result against JAK3 [7] is reported as “no relevant inhibitory activity”.
